From patent publication EP1330253B1, “USE OF BIOACTIVE FRACTION FROM COW URINE DISTILLATE ('GO MUTRA') AS A BIO-ENHANCER OF ANTI-INFECTIVE, ANTI-CANCER AGENTS AND NUTRIENTS” (Council of Scientific and Industrial Research, priority 2000, dated 2002) come the findings set out here.

Read-outs that look alike come from different tables or passages of the source.

Data set [1] concerns Bacillus subtilis. Kind of data set: Bio-enhancement of anti-infective agents, broth assay with viable cell count. In kind it is cell-based. The note with it: for Fold enhancement in antibiotic activity: cow urine distillate 1 µl/ml. The protocol: (§1) • a) The minimum inhibitory concentration (MIC) of antibiotic is determined against Escherichia coli (equivalent of ATCC 10536), Bacillus subtilis (equivalent of ATCC 6015) and Mycobacterium smegmatis (equivalent of ATCC 10231) in broth and disc diffusion assay. • b) The antibiotics agents at concentrations 1/4, 1/3, 1/2 and equal to MIC are added alone and in combination with the test compound at varying concentrations on disc and in broth to evaluate the comparative inhibition. • c) These combination showing significant advantage or higher activity than antibiotic alone in terms of enhanced inhibition of bacterial growth (large inhibition zone in disc diffusion and affectivity of lower concentration in broth assay) are picked up for future testing. • d) In broth assay the activity is quantified by counting number of viable cells in a given treatment and converted in fold enhancement by combination compared to antibiotic / drug alone in the killing percentage of cells. • e) The pre-treatment assay followed to determine whether the compound is required along with antibiotic to enhance its activity or even its withdrawal after treatment or prior to antibiotic treatment would benefit. For this, the cells are treated with compound for 4 to 8 hours and then washed free of it by centrifugation and washing in sterile water. This was followed by treatment with antibiotic as in steps b to d.
(§2) In the next step of elucidation of the enhancer action, the applicants experimented with the killing activities of different antibiotics against the bacteria singly and in combination with the test component (cow urine distillate) following the method described above. These experiments are being described in the following examples. […] In all the experiments the cow urine distillate concentration was kept at 1 µl/ml, unless it is specifically mentioned.

Data set [2] concerns Escherichia coli. The description is as above. The note with it: for Fold enhancement in antibiotic activity: cow urine distillate 1 µl/ml. Format: cell-based. How it is done:
as §1, §2

For data set [3], the system named is Mycobacterium smegmatis. Described as above. The note with it: for Fold enhancement in antibiotic activity: cow urine distillate 1 µl/ml. In kind it is cell-based. The protocol:
as §1, §2

The nature of data set [4]: Bioenhancement of antifungal agent, minimum inhibitory concentration. In kind it is cell-based. The settings on record: active fraction Gm-IV kept at 10 µg/ml in the combination.
In data set [5] the test system is oxyR mutant of bacterium Escherichia coli. In kind it is cell-based. The settings on record: for Fold enhancement in isoniazid/H2O2 activity: cow urine distillate 0.001 µl/ml. How it is done: For this, the cells are treated with compound for 4 to 8 hours and then washed free of it by centrifugation and washing in sterile water. This was followed by treatment with antibiotic as in steps b to d.

For data set [6] the following is noted: for OD measured as Absorbance (specific to the compound maxima) across the membrane in receiving tube after 1 hr / OD measured as Absorbance (specific to the compound maxima) across the membrane in receiving tube after 2 hr / OD measured as Absorbance (specific to the compound maxima) across the membrane in receiving tube after 3 hr / OD measured as Absorbance (specific to the compound maxima) across the membrane in receiving tube after 4hr / OD measured as Absorbance (specific to the compound maxima) across the membrane in receiving tube after 5 hr / OD measured as Absorbance (specific to the compound maxima) across the membrane in receiving tube after 6 hr: Rifampicin 1mg/ml, fraction Gm-IV 1.0µg/ml.

Data set [7] relates to MCF-7. Kind of data set: Bio-enhancement of anti-cancer agents, viable cell count. Format: cell-based. The settings on record: distillate at 1 µl/ml. The protocol:
• a) MCF-7 (Breast cancer commercial cell line obtained from National Center for Cell Sciences (NCCS), Pune) is inoculated at a density of about 0.1 X 10^6 cells in MEM medium in the wells of 24 well plate. • b) This is replaced with fresh medium after 18 hours in each well. • c) The test component (s) is added at desired concentrations in different wells just after the medium replacement. • d) Observations are recorded on the cell count after 36 hours for which the allowing steps are required. • i. The medium is removed from the wells. • ii. The wells are rinsed with 1ml PBS (Phosphate buffer saline). • iii. To each well 500 µl of freshly prepared trypsin (0.1% in PBS) solution is added. • iv. Trypsin solution is removed after 30 seconds and the plate is gently tapped till the cells are released from the plate surface. • v. Fresh 1 ml of MEM growth medium is added and agitated with a pipette to obtain a cell suspension. • vi. 10 µl of cell suspension is taken on the haemocytometer and a cover glass is placed over the counting chamber. • vii. The number of viable cells is counted in 5 big squares and the readings are taken from 5 microscopic fields to determine the average. • viii. The cell count (titer per ml) in the original sample is then calculated as average count X 10^3.

Where [8] appears, read: antibiotic 0.1 µg/ml + cow urine distillate 1 µl/ml.
[9] abbreviates: antibiotic 0.5 µg/ml + cow urine distillate 1 µl/ml.
[10] abbreviates: antibiotic 0.05 µg/ml + cow urine distillate 1 µl/ml.

In the case of `CC1(C)S[C@@H]2[C@H](NC(=O)[C@H](N)c3ccccc3)C(=O)N2[C@H]1C(=O)O` [Ampicillin], the “Survival fraction of viable cells upon treatment with antibiotic alone” value in data set [1] (antibiotic 0.1 µg/ml) was determined as 1.00; in data set [1] (antibiotic 0.5 µg/ml), 0.18; in data set [2] (antibiotic 4 µg/ml), 1.11; in data set [2] (antibiotic 6 µg/ml), 0.09; in data set [2] (antibiotic 8 µg/ml) it was 0.05; in data set [3] (antibiotic 0.5 µg/ml), 0.07. For the same compound, the “Survival fraction of viable cells upon treatment with antibiotic + cow urine distillate combination” value in data set [1] (setting [8]) turned out to be 0.3; in data set [1] (setting [9]), 0.06; in data set [3] (setting [9]), 0.006. In addition, the “Fold enhancement in antibiotic activity” value in data set [1] (antibiotic 0.1 µg/ml) came to 3.3; in data set [1] (antibiotic 0.5 µg/ml) it was 3.0; in data set [2] (antibiotic 4 µg/ml) it was 1.85; in data set [2] (antibiotic 6 µg/ml), 4.50; in data set [2] (antibiotic 8 µg/ml), 5.00; in data set [3] (antibiotic 0.5 µg/ml) it was 11.6. Further, the entries for the “Survival fraction of viable cells upon treatment with amlibiotic + cow urine distillate combination” value in data set [2] (antibiotic 4 µg/ml + cow urine distillate 1 µl/ml), in data set [2] (antibiotic 6 µg/ml + cow urine distillate 1 µl/ml) and in data set [2] (antibiotic 8 µg/ml + cow urine distillate 1 µl/ml) were 0.60, 0.02 and 0.01, respectively.

Consider `Clc1ccccc1C(c1ccccc1)(c1ccccc1)n1ccnc1` [Clotrimazol], for which, in data set [4], the Fold enhancement is 0.0 and the “Minimum inhibitory Concentration (MIC)” value was 4.40 µg/mL.

With `OO` [Hydrogen peroxide (H2O2), Hydrogen peroxide], in data set [5] (0.003 %v/v), the Viable cell count was 7.14 x10^7 and the “Fold enhancement in isoniazid/H2O2 activity” value is 5.9. For the same compound, the Viable cell count in data set [5] (0.003 %v/v + cow urine distillate 0.001 µl/ml) is listed as 1.2 x10^7.

As to `NNC(=O)c1ccncc1` [Isoniazid], in data set [5] (250µg/ml), the Viable cell count is 7.5 x10^7 and the “Fold enhancement in isoniazid/H2O2 activity” value amounted to 7.5. For the same compound, the Viable cell count in data set [5] (250µg/ml + cow urine distillate 0.001 µl/ml) is 0.99 x10^7. The “enhancement action for INH” value in data set [5] (distillate at 10-50 thousand-fold dilution in the final volume of culture, organism not stated) was “showed enhancement action”.

For the compound `CO[C@H]1/C=C/O[C@@]2(C)Oc3c(C)c(O)c4c(O)c(c(/C=N/N5CCN(C)CC5)c(O)c4c3C2=O)NC(=O)/C(C)=C\C=C\[C@H](C)[C@H](O)[C@@H](C)[C@@H](O)[C@@H](C)[C@H](OC(C)=O)[C@@H]1C` [Rifampicin], the “Survival fraction of viable cells upon treatment with antibiotic alone” value in data set [1] (antibiotic 0.005 µg/ml) is on record as 1.1; in data set [1] (antibiotic 0.05 µg/ml), 0.03; in data set [2] (antibiotic 10 µg/ml), 0.86; in data set [2] (antibiotic 30 µg/ml) it was 0.05; in data set [3] (antibiotic 0.05 µg/ml), 0.008; in data set [3] (antibiotic 0.1 µg/ml) it was 0.006. In addition, the “Survival fraction of viable cells upon treatment with antibiotic + cow urine distillate combination” value was 0.28 in data set [1] (antibiotic 0.005 µg/ml + cow urine distillate 1 µl/ml), 0.01 in data set [1] (setting [10]), 0.0001 in data set [3] (setting [10]) and 0.0036 in data set [3] (setting [8]). Further, the “Fold enhancement in antibiotic activity” value in data set [1] (antibiotic 0.005 µg/ml) is 5.5; in data set [1] (antibiotic 0.05 µg/ml), 3.0; in data set [2] (antibiotic 10 µg/ml), 5.0; in data set [2] (antibiotic 30 µg/ml) it was 7.1; in data set [3] (antibiotic 0.05 µg/ml), 80; in data set [3] (antibiotic 0.1 µg/ml), 1.5. Besides, the “Survival fraction of viable cells upon treatment with amlibiotic + cow urine distillate combination” value in data set [2] (antibiotic 10 µg/ml + cow urine distillate 1 µl/ml) stood at 0.17; in data set [2] (antibiotic 30 µg/ml + cow urine distillate 1 µl/ml), 0.007. For the same compound, the “OD measured as Absorbance (specific to the compound maxima) across the membrane in receiving tube after 1 hr” value was 0.0097 in data set [6] (A340) and 0.0177 in data set [6] (A475). The “OD measured as Absorbance (specific to the compound maxima) across the membrane in receiving tube after 2 hr” value in data set [6] (A340) amounted to 0.0214; in data set [6] (A475) it was 0.0284. Also, the “OD measured as Absorbance (specific to the compound maxima) across the membrane in receiving tube after 3 hr” value in data set [6] (A340) worked out at 0.0334; in data set [6] (A475), 0.0309. The “OD measured as Absorbance (specific to the compound maxima) across the membrane in receiving tube after 4hr” value is given as 0.0771 in data set [6] (A340) and 0.0412 in data set [6] (A475). Moreover, the “OD measured as Absorbance (specific to the compound maxima) across the membrane in receiving tube after 5 hr” value in data set [6] (A340) came out at 0.0858; in data set [6] (A475), 0.0484. For the same compound, the “OD measured as Absorbance (specific to the compound maxima) across the membrane in receiving tube after 6 hr” value in data set [6] (A340) amounted to 0.0910; in data set [6] (A475), 0.0496. In addition, the “enhancement of bioavailability across the mammalian gut membrane” value in data set [6] (with the sample, goat intestine, within 2 hours, keeps increasing upto 4 hours) was “enhancement of bioavailability”.

For `CC(=O)O[C@H]1C(=O)[C@@]2(C)[C@H]([C@H](OC(=O)c3ccccc3)[C@]3(O)C[C@H](OC(=O)[C@H](O)[C@@H](NC(=O)c4ccccc4)c4ccccc4)C(C)=C1C3(C)C)[C@]1(OC(C)=O)CO[C@@H]1C[C@@H]2O` [Taxol, Paclitaxel], the “enhancement in the activity of taxol” value in data set [7] was “at least 5 folds”.
